Peptide text beside a SMILES is read from it.
How the values were obtained:
[1] = Stability of Mg(G3) in solution via 1H NMR; type: physicochemical; settings: 1H NMR in D2O; periods up to 72 hrs
From the text: At 72 hrs, an observable upfield shift occurs, which may be due to isomer formation. There is no observable change in proton integration. NMR taken in D2O.

Caco-2 cells = assay: Cellular uptake in Caco-2 cells, BioVision colorimetric magnesium uptake assay kit; type: in vitro ADME; settings: compared with other magnesium complexes
From the text: 18 MΩ Ultrapure water was obtained in-house.

Compound | stability in solution [1] | cellular uptake in CaCo-2 cell line (FIG. 72) (Caco-2 cells)
NCC(=O)NCC(=O)NCC(=O)[O-].[Mg+2].[OH-] [Mg(G3), magnesium 2-[[2-[(2-aminoacetyl)amino]acetyl]amino]acetic acid chelate] (H-Gly-Gly-Gly-OH) | considerable stability | 
NCC(=O)[O-].NCC(=O)[O-].[Mg+2] [MgBG, magnesium bisglycinate, reference compound] |  | significantly less cellular uptake than Mg(G3)
magnesium diglycine [MgG2] |  | relatively linear uptake

Source: patent US20210371374A1, “METAL DI-AMINO ACID CHELATES OR METAL TRI-AMINO ACID CHELATES” (Balchem Corporation, priority 2020, published 2021)
